Literature values, collected in patent US11478524B1, “Methods and compositions for modulating complex mixtures by selective deletion chromatography” (UNIVERSITY OF SOUTH FLORIDA, priority 2017, dated 2022).
Where two headings read alike, the source gives them in different places.

Epigallocatechin-3-gallate [EGCG]
lifespan extension (under heat stress): 13%
effect on longevity (under normal conditions): little effect
lifespan extension (under oxidative stress): 178%
